Laboratory results reported in patent US20240165029A1, “ASSISTED LOADING OF HYDROPHOBIC MOLECULES INTO LIPOSOMES” (UNIVERSITY OF CONNECTICUT, priority 2021, published 2024).
Entries after “also recorded” stand apart in the source; their conditions may differ. Each block holds one compound with its values, some of them ahead of it.

Key:
mBCO2 [1] = target: T1, mBCO2 (Mus musculus, UniProt Q99NF1); assay: Immunocolocalization of mBCO2 in COS7 cells by confocal microscopy; type: cell-based; conditions: for percent of colocalization of mBCO2 with nuclear marker: 5 h, lutein 0.15 μM, violaxanthin 0.6 μM, compared with zeaxanthin 0.45 μM
T1 construct: expressed in transfected cells; host or cells: HEK293F (Human 293F FreeStyle) cells
T1 sequence (Q99NF1 1-532): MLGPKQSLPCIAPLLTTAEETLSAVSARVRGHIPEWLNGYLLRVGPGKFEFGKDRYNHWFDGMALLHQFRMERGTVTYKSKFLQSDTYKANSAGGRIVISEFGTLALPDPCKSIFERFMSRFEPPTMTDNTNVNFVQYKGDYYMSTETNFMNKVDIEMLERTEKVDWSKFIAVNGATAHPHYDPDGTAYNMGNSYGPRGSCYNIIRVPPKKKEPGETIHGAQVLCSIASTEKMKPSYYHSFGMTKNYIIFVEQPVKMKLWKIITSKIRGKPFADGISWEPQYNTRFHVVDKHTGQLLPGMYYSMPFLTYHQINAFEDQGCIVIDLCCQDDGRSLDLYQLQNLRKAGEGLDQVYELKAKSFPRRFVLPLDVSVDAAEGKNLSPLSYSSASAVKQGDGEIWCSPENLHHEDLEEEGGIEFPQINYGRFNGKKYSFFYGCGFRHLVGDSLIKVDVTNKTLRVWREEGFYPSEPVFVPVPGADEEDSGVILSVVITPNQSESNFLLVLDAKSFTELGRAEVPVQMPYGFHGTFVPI
Protocol: BCO2-overexpressing COS7 cells (1×10^6 cells/mL) seeded on poly L-lysine coated 18 mm coverslips were analyzed by immunofluorescence microscopy to determine the localization of BCO2 protein in different subcellular organelles as described previously. Briefly, COS7 cells were transfected with 20 μg of BCO2-Lumio V5 tag plasmid using Fugene® 6 transfection reagent (1:6 DNA: Fugene 6 ratio). After 43 h, BCO2-transfected cells were treated with substrate-encapsulated LUVs for 5 h. Fixed cells were immunostained with V5 monoclonal and polyclonal antibodies alone and together with primary antibodies specific for different subcellular organelles (ER (PDIA3), Golgi (MAN2A1), mitochondria (COX IV and HSP60), and peroxisomes (PMP70)), followed by Alexa fluorophore-conjugated secondary antibodies (Invitrogen). Cell nuclei were stained with DAPI (1 μg/μL solution; Sigma). Slides were then visualized with a Zeiss LSM 700 confocal microscope using a 40× oil immersion lens/1.4-NA and Zeiss ZEN software. Pearson's correlation coefficient values were determined for analysis of the co-localization of BCO2 protein and different organelles and represented as mean±standard deviation. For nuclear co-localization of BCO2 protein, the Pearson's correlation coefficient of BCO2 with DAPI-stained nuclei was measured using the results from three independent experiments: single labeling of BCO2 “alone”, double labeling of BCO2 with mitochondrial markers COX IV and HSP60. Results shown were typical of a minimum of three independent experiments with 5-10 fields of view containing on average 1-10 cells/field of view.
Next, BCO2 localization by immunofluorescence microscopy was examined using mBCO2 transfected COST cells with various organellar markers (for mitochondria, peroxisomes, endoplasmic reticulum (ER), and Golgi). It was confirmed that V5 tag antibodies recognize specifically mBCO2-V5 protein in transfected HEK293F cells (FIG. 12A-12F). For nuclear labeling, DAPI nuclear stain was used. […]

[2] = Spectroscopic (UV/Vis) determination of the concentration of xanthophylls in LUVs; type: physicochemical
Protocol: The concentrations of xanthophylls were measured using a 2 mm optical path quartz cell in an Agilent Cary 60 UV-Vis spectrophotometer. To measure the concentration of xanthophylls in LUVs, a 10 μL aliquot is mixed with 300 μL of DMF. Standards and samples were measured at least 3 times and the data were averaged.

mBCO2 [3] = target: T1, mBCO2; assay: Acyl-RAC assay of mBCO2 palmitoylation in HEK293F cells; type: cell-based; conditions: for mBCO2 palmitoylation (protein band in HAM-treated sample): HEK293F cells, 5 h
Protocol: previously published protocol. Briefly, a typical transfection experiment used 3×10^7 cells in 28 mL of FreeStyle medium mixed with 2 mL of OptiMem-I reduced serum medium containing 40 μL 293fectin transfection reagent (Invitrogen) and 20 μg of each expression plasmid under study. Cells were grown with shaking at 125 rpm on an orbital shaker platform in a 37° C. incubator with a humidified atmosphere of 8% CO2 for 48 h total. In total, 200 μl of vesicles with xanthophylls were added, incubating for 5 hr under standard growth conditions.
For cell lysis and the Acyl-RAC assay, the same protocol as previously described in detail, with slight modifications, was used. BCO2-overexpressing HEK293F cells were washed with 1X-PBS and resuspended in lysis buffer (50 mM HEPES (pH 7.4) containing 150 mM NaCl, 5 mM EDTA, 1% glycerol, and 1× complete protease inhibitor cocktail (Roche Diagnostics)). Resuspended cells were lysed using N2 cavitation followed by centrifugation at 900×g for 10 min at 4° C. to remove the cell debris and nuclei. The clarified supernatant was then subjected to centrifugation at 20,000×g for 30 min at 4° C. to obtain heavy membrane (mitochondrial) pellet and post-mitochondrial supernatant (light membrane and cytosol) fractions. Typically, a 1000 μg amount of resuspended heavy membrane pellet protein (resuspended in lysis buffer containing 0.1% Triton X-100) was used for palmitoylation detection assay. Briefly, free cysteine sulfhydryl (—SH) groups were blocked with 0.5% (v/v) S-methyl methanethiosulfonate (MMTS) containing blocking buffer for 15 min at 40 ° C. The blocked protein samples were then subjected to acetone protein precipitation. The protein pellet was then resuspended in 550 μl 100 mM HEPES containing 5 mM EDTA and 1% SDS (v/v). The samples were then divided into two 250 μl aliquots (containing 400 μg protein amount) and the remaining 50 μl was used as an input. The samples were treated with 250 mM hydroxylamine (NH2OH, HAM) or control (250 mM NaCl). To capture proteins with free —SH groups, each sample was mixed with 10 mg activated thiol-sepharose 4B beads (Sigma) and incubated for 2 h at room temperature with continuous end-over-end rotation. After incubation, the beads were washed, and bound proteins were eluted by boiling the beads with an aliquot of 50 μL elution sample buffer. The input and eluted fractions from “HAM” and “control” samples were separated by SDS-PAGE and analyzed by Western blotting.
(§1) It was previously established that mBCO2 in eukaryotic HEK293F cells is palmitoylated. […] Knowing that BCO2 cleaves xanthophylls, palmitoylation assays were ran to study the palmitoylation status of mBCO2 in the presence of xanthophylls. First, xanthophylls were attempted to be delivered with the detergent Tween 40 [50]. […] Therefore, a new method to deliver xanthophylls without detergents using unilamellar LUVs as described above was established. The content of xanthophylls in the HEK293F cells after 5 h of treatment was similar to a Tween 40 delivery system in ARPE-19 cells (1-2%) (FIG. 9A-9B). Subsequently, the acyl-RAC method was used as described previously. The membrane fraction of HEK293F cells expressing mBCO2 was subjected to treatment with hydroxylamine (+HAM) and an equal portion of the fraction was treated with 250 mM NaCl (−HAM) which served as control.

mBCO2 [4] = target: T1, mBCO2; conditions: HEK293F cells, earlier work [34]; cited from earlier work
mBCO2 [5] = target: T1, mBCO2; conditions: earlier work [34]; cited from earlier work
HEK293F cells = assay: Tween 40 delivery: effect on HEK293F cells; type: cell-based, human; conditions: higher concentration of Tween 40 (0.1%)
From the text: as §1

percent of colocalization of mBCO2 with nuclear marker (mBCO2 [1]): higher
final concentration of xanthophyll in LUVs measured by UV/Vis ([2]; DMPC/DMPS LUVs): 0.0125 g/L
Compound: CC1=C[C@H](O)CC(C)(C)[C@H]1/C=C/C(C)=C/C=C/C(C)=C/C=C/C=C(C)/C=C/C=C(C)/C=C/C1=C(C)C[C@@H](O)CC1(C)C [lutein]
percent colocalization of BCO2 in the nucleus (mBCO2 [1]; lower concentration of lutein (0.06 μM) versus 0.15 μM): decreased in a lutein concentration-dependent manner
mBCO2 palmitoylation (protein band in HAM-treated sample) (mBCO2 [3]; 0.06 μM lutein in DMPC/DMPS): no protein band was detected in the HAM-treated sample; also recorded: residual mBCO2 palmitoylation is seen in some samples
mBCO2 palmitoylation (protein band in HAM-treated sample) (mBCO2 [3]; 0.15 μM lutein in DMPC/DMPS): no protein band was detected in the HAM-treated sample

percent of colocalization of mBCO2 with nuclear marker (mBCO2 [1]): higher
final concentration of xanthophyll in LUVs measured by UV/Vis ([2]; DMPC/DMPS LUVs): 0.07 g/L
Compound: CC(/C=C/C=C(C)/C=C/[C@@]12O[C@]1(C)C[C@@H](O)CC2(C)C)=C\C=C\C=C(C)\C=C\C=C(C)\C=C\[C@@]12O[C@]1(C)C[C@@H](O)CC2(C)C [violaxanthin]
mBCO2 palmitoylation (protein band in HAM-treated sample) (mBCO2 [3]; 0.6 μM, DMPC/DMPS-encapsulated): residual mBCO2 palmitoylation is seen in some samples

final concentration of xanthophyll in LUVs measured by UV/Vis ([2]; DMPC/DMPS LUVs): 0.14 g/L
final concentration of xanthophyll in LUVs measured by UV/Vis ([2]; DPPC/DPPS LUVs): 0.038 g/L
Compound: CC1=C(/C=C/C(C)=C/C=C/C(C)=C/C=C/C=C(C)/C=C/C=C(C)/C=C/C2=C(C)C[C@@H](O)CC2(C)C)C(C)(C)C[C@H](O)C1 [zeaxanthin]
mBCO2 palmitoylation (protein band in HAM-treated sample) (mBCO2 [3]; 0.45 μM, DPPC/DPPS-encapsulated): residual mBCO2 palmitoylation is seen in some samples

The next lines start with the compound.

Compound: CC1=C(/C=C/C(C)=C/C=C/C(C)=C/C=C/C=C(C)/C=C/C=C(C)/C=C/C2=C(C)CCCC2(C)C)C(C)(C)CCC1 [β-carotene]
mBCO2 palmitoylation in presence of substrate (mBCO2 [4]): loses palmitoylation
mBCO2 colocalization with the nuclear DAPI stain (mBCO2 [5]): mBCO2 colocalization with the nuclear DAPI stain was observed

Compound: Tween 40 [reference compound]
effect on HEK293F cells (HEK293F cells): led to HEK293F cell apoptosis
effect on mBCO2 membrane association in Acyl-RAC assay (mBCO2 [3]; lower concentration of Tween 40 (0.01%)): eluted mBCO2 from membranes during the Acyl-RAC assay even without hydroxylamine treatment
